Measurements reported in patent publication US6888015B2, “Sphingolipid synthesis inhibitor” (Japan Science and Technology Agency, priority 2001, dated 2005).

What was measured:
CHO cells = experiment: Viability of cells (MTT); type: cell-based, Chinese hamster; settings: 10 μM; data not shown
Method: CHO cells are seeded at a density of 2.0×10^4 per one hole of a 48-hole culture plate in 500 μL of F12 medium containing 10% NBS, and cultivated at 33[…] overnight. Then, the medium is changed to 500 μL of Nutridoma medium containing various concentrations of HPA compounds at 33° C. for 24 hours, and the viability of cells are determined using MTT as disclosed in Document 9.

[1] = tested on: conversion of Cer to SM in intact cells; experiment: Conversion of [3H]Cer to [3H]SM in intact cells ([3H]sphingosine pulse-chase); type: cell-based, Chinese hamster; settings: 1 μM; chase at 33° C. up to 1 hour with fumonisin B1
Method: The measurement of conversion of [^3H] Cer to [^3H] SM in cells is performed by a modified method of the method disclosed in Document 1. That is, as the first step, cells are pulse-labeled in 1.5 mL of Nutridoma medium containing 1 μM D-erythro-[^3H] sphingosine (2.5 μCi). After washed, the cells are incubated in 1.5 mL of Nutridoma medium supplemented with or without 1 μM HPA-12 at 4° C. for 15 minutes, then incubated under the presence of 100 μM fumonisin B, at 33° C. for various periods of time for chase.
The lipids are extracted from the chased cells, and separated by TLC with a developing solvent consisting of chloroform/methanol/H2O (volume ratio, 65:25:4). Then, the radioactivity of each lipid is measured by the method mentioned above.
To examine the inhibitory effect of HPA-12 on the step of Cer-to-SM conversion specifically, metabolic labeling experiments with [^3H] sphingosine are carried out. When cells are labelled with [^3H] sphingosine at 15° C., [^3H] sphingosine is effectively N-acylated and converted to [^3H] Cer, but, [^3H] Cer is not converted to [^3H] SM at this temperature (Document 2). After the labeling with [^3H] sphingosine at low temperature to generate [^3H] Cer, the cells are treated with 1 μM HPA-12 at 4° C. for 15 minutes, and then incubated at 33° C. up to 1 hour for chase. During the chase, de novo synthesis of [^3H] […]

[2] = tested on: biosynthesis of phosphatidylcholine; experiment: Metabolic labeling of lipids with [14C]choline; type: cell-based, Chinese hamster; settings: 1 μM, 33° C., 4 hours
Method: CHO cells are seeded at the density of 1.0×10^6 cell in 5 mL of F12 medium containing 10% NBS, by per 60-mm dish, and cultured at 33° C. overnight. Then, the medium is changed to 1.5 mL of Nutridoma medium if necessary, various drugs are added and incubated at 4° C. for 15 minutes. Then, after addition of [^14C] serine (0.75 μCi) or [^14 C] choline (1.0 μCi) to the medium, cells were incubated at 33° C. for various periods of time.
Cells are washed twice with 2 mL of cold phosphate-buffered saline (PBS), and lysed with 900 μL of 0.1% sodium dodecyl sulfate (SDS). Then, 800 μL and 20 μL of lysate are used for lipid extraction and determination of protein concentration, respectively.
For the analysis of the lipid labeled by [^14C] choline, the lipid is separated by one-dimensional TLC using chloroform/methanol/acetic acid/H2O (25:15:4:2, volume ratio) as a developing solvent. […]
Radioactive lipid separated on the TLC plates are detected with image analyzer depicted above. After the collection of gels from TLC plates by scraping, the radioactivity of each lipid is determined by liquid scintillation counting and normalized to the protein concentration of cells.

GlcCer synthase = target: T1, GlcCer synthase (Cricetulus griseus, UniProt A0A9J7CH29); experiment: GlcCer synthase enzyme assay, CHO membrane fraction; type: biochemical, Chinese hamster; settings: 20 μM; substrate C6-NBD-Cer
T1 construct: Membrane fraction prepared from CHO cells is used as an enzyme source; endogenous in cells; host or cells: CHO cells, membrane fraction
T1 sequence (A0A9J7CH29 1-394): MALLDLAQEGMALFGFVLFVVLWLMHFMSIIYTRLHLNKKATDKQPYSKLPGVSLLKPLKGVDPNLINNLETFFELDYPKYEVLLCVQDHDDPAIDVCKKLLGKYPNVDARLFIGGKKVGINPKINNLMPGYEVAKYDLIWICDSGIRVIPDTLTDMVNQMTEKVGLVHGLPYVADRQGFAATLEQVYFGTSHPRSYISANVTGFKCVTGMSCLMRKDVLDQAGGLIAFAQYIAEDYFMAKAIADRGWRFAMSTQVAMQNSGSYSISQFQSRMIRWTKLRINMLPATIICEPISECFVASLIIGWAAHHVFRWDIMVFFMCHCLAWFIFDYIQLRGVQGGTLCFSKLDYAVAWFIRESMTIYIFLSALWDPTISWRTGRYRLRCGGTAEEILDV
Method: Membrane fraction prepared from CHO cells is used as an enzyme source.
Enzyme assays of SM synthesis and GlcCer synthase are carried out by using C6-NBD-Cer as a substrate as disclosed in Document 6.

CCCCCCCCCCCC(=O)NC(CO)CC(O)c1ccccc1 (stereo not shown) [HPA-12, N-(3-hydroxy-1-hydroxymethyl-3-phenylprol)dodecaneamide]
toxicity to CHO cells (CHO cells): highly toxic
formation of [3H]GlcCer [1]: does not inhibit and rather increases
inhibition of formation of [3H]SM [1]: 50%
level of [14C]PC vs untreated cells [2]: almost equal
level of [14C]SM vs drug-untreated control level [2]: about half
C6-NBD-GlcCer formed (GlcCer synthase activity) (GlcCer synthase): 325.9 ± 17.1 pmol/mg protein/10 minutes
inhibition of GlcCer synthase (GlcCer synthase): Neither of SM synthase nor GlcCer synthase is inhibited
